Experimental data as given in patent publication US5955053A, “Metal chelates as pharmaceutical imaging agents, processes of making such and uses thereof” (Emory University, priority 1996, dated 1999).
Read-outs that look alike come from different tables or passages of the source.

Tests used:
[1] = Biodistribution in normal rats; type: in vivo, rat; settings: ^99m Tc
Procedure: Tracheostomy was performed in an anesthetized rat and the left jugular vein was cannulated with one piece of PE-50 tubing for injection of the ^99m Tc radiopharmaceutical. The bladder was catheterized utilizing heat flared PE-50 tubing for urine collection. […] Each animal was sacrificed at the conclusion of the dynamic study and simultaneous static images of the isolated lungs, heart, liver, spleen, stomach, kidneys, bowel and bladder with urine were acquired as well as a static image of the rat carcass without the organs. Total counts for the injected dose were determined from the sum of the isolated organ counts and the carcass counts decay corrected to the time of organ imaging. Regions of interest were drawn around each organ to determined the percent injected dose in each organ.

[2] = physiological pH; cited from earlier work
[3] = Normal volunteer studies: plasma clearance, urinary excretion and imaging; type: in vivo, human; settings: humans; for Clearance rate (EC/OIH): ± spread as printed
Procedure: ^99m Tc LL-EC, DD-EC and DL-EC were each evaluated in three normal male volunteers. The HPLC purified complexes and phosphate-buffered saline (pH 7.0) were passed through a SEP-PAK Plus C18 cartridge (primed with 1 ml ethanol) and a sterile Millex-GS 0.22 μm filter unit into a sterile, pyrogen-free empty vial. The final concentration was ~2.0 mCi/2.5 ml and the final pH ranged from 5.7 to 7.4. Test samples of each complex were sterile and pyrogen free. Approximately 2 mCi of each ^99m Tc complex were coinjected with 200 μCi of I-131 OIH and plasma samples were obtained at 5, 10, 15, 20, 30 45, 60 and 90 minutes postinjection. The plasma clearances of I-131 OIH and each EC complex were determined using the single injection, two-compartment model of Sapirstein et al., Am. J. Physiol. 181:330-336. The volunteers voided at 30, 90 and 180 minutes postinjection to determine the percent dose in the urine at each time period. A urine sample from the 30 minute urine collection was obtained for HPLC analysis from one of the normal volunteers and analyzed for each complex. One volunteer was imaged with each complex using a simultaneous acquisition with a 20% window centered over the 363 KeV photopeak of I-131 and a second 20% window over the 140 KeV photopeak of ^99m Tc. Data were acquired in a 128×128 matrix using a three phase dynamic acquisition: phase 1 consisted of 24 two second frames, phase 2 consisted of 16 fifteen second frames and phase 3 consisted of 40 thirty second frames. Data were acquired using a general Electric (Milwaukee, Wis.) Star-Cam computer fitted with a high energy collimator. All studies were performed with the approval of the Human Investigations Committee and a signed consent form was obtained.

[4] = Renal clearance / renal excretion in rats (statements in words); type: in vivo, rat; settings: for Renal clearance of DD-EC compared to LL-EC: vs LL-isomer
Procedure: Tracheostomy was performed in an anesthetized rat and the left jugular vein was cannulated with one piece of PE-50 tubing for injection of the ^99m Tc radiopharmaceutical. The bladder was catheterized utilizing heat flared PE-50 tubing for urine collection. A bolus injection of the radiopharmaceutical (400-500 μCi/0.25 ml) was given and the rat was imaged (1 frame/10 s) for 22 minutes (130 frames) using a gamma camera. Each animal was sacrificed at the conclusion of the dynamic study and simultaneous static images of the isolated lungs, heart, liver, spleen, stomach, kidneys, bowel and bladder with urine were acquired as well as a static image of the rat carcass without the organs. Total counts for the injected dose were determined from the sum of the isolated organ counts and the carcass counts decay corrected to the time of organ imaging. Regions of interest were drawn around each organ to determined the percent injected dose in each organ.

[5] = Stability of metal chelates; type: physicochemical
[6] = mice; cited from earlier work
[7] = mice and baboons; cited from earlier work
[8] = in vivo; cited from earlier work
[9] = normal volunteers; increases in renal failure; cited from earlier work
[10] = cited from earlier work
[11] = % of that of OIH; cited from earlier work
[12] = cited from earlier work; remark: listed apart in the source
[13] = in vivo; cited from earlier work; remark: listed apart in the source
[14] = in vivo; cited from earlier work; remark: listed apart in the source
[15] = in vivo; cited from earlier work; remark: listed apart in the source
[16] = cited from earlier work; remark: listed apart in the source

## O=C(O)[C@@H](CS)NCCN[C@H](CS)C(=O)O (99mTc complex, metal not drawn) [D,D-EC, D,D-ethylenedicysteine]
[1]; 22 minutes post injection
  Biodistribution: Bladder: 63.2% of total activity
  Biodistribution: Carcass: 25.4% of total activity
  Biodistribution: Intestines: 2.6% of total activity
  Biodistribution: Kidneys: 5.4% of total activity
  Biodistribution: Liver: 2.9% of total activity
  Biodistribution: Stomach: < 1% of total activity
[2]
  Dianionic form: 80%
  Monoanionic form: 20%
[3]
  Imaging properties: excellent imaging properties
  Rate of excretion in the urine: excreted at essentially the same rate in the urine
  Clearance rate (EC/OIH): 82 ±8%
[4]
  Renal clearance of DD-EC compared to LL-EC: superior to L,L-EC in rats
[4]; listed as DD-EC
  Renal clearance of DD-EC compared to LL-EC: significantly higher than that of its LL-isomer
[4]; vs ^99m Tc MAG3
  Renal clearance / excretion compared to MAG3: more rapid renal clearance than ^99m Tc MAG3
[4]; vs ^99m Tc MAG3, listed as DD-EC
  Renal clearance / excretion compared to MAG3: significantly higher

## CC(C)(S)C(=O)NCCCNC(=S)NCCC(=O)O [(Me)2 -TAPTU-EtCOOH, dimethylthioacetamidepropylthiourea-ethylCOOH]
[5]
  Stability compared with corresponding thioacetamidethiourea derivative: greater stability than the corresponding thioacetamidethiourea derivative
[5]; listed as dimethyl-TAPTU-EtCOOH
  Stability compared with corresponding thioacetamidethiourea derivative: more stable than the corresponding thioacetamide-thiourea derivative

## O=C([O-])[C@H](C[S-])NCCN[C@@H](CS)C(=O)[O-].[O]=[Tc+3] [L,L-EC, L,L-ethylenedicysteine, reference compound]
[6]
  Excretion into the urine: rapidly and efficiently excreted into the urine in mice
[1]; 22 minutes post injection
  Biodistribution: Bladder: 45.6% of total activity
  Biodistribution: Carcass: 22.6% of total activity
  Biodistribution: Intestines: 1.8% of total activity
  Biodistribution: Kidneys: 24.4% of total activity
  Biodistribution: Liver: 4.5% of total activity
  Biodistribution: Stomach: < 1% of total activity
[2]
  Dianionic form: 80%
  Monoanionic form: 20%
[7]
  Comparison to enantiomer DD-EC: superior to the enantiomer ^99m Tc DD-EC
  Pharmacokinetic properties relative to OIH and MAG3: more closely approached those of OIH than the properties of MAG3
[8]
  Excretion by the kidneys: excreted rapidly and efficiently by the kidneys
[3]
  Rate of excretion in the urine: excreted at essentially the same rate in the urine
  Clearance rate (EC/OIH): 70 ±3%

## O=C([O-])CN=C([O-])CN=C([O-])CN=C([O-])C[S-].[O]=[99Tc+3] [MAG3, technetium-99m (^99m Tc) mercaptoacetyltriglycine, reference compound]
[1]; 22 minutes post injection
  Biodistribution: Bladder: 57% of total activity
  Biodistribution: Carcass: 14% of total activity
  Biodistribution: Intestines: 5% of total activity
  Biodistribution: Kidneys: 23% of total activity
  Biodistribution: Liver: 1% of total activity
  Biodistribution: Stomach: < 1% of total activity
[9]
  Transport into the small intestine via the hepatobiliary system: a small percentage
[10]
  Plasma-protein binding: very high
[11]
  Clearance relative to OIH: 50-60%
[12]; in vivo
  Clearance compared to DTPA: higher clearance

## C[C@H](NC(=O)CNC(=O)CS)C(=O)NCC(=O)O [MAGAG, mercaptoacetylglycylalanylglycine]
[13]
  Comparison of diastereomers to MAG3: one diastereomer comparable and the other considerably inferior

## O=C(O)CNC(=O)c1ccccc1[131I] [OIH, ^131 I-orthohippurate]
[12]; % of the clearance of PAH
  Clearance relative to PAH: 83%

## D,L-ethylenedicysteine [DL-EC]
[3]
  Rate of excretion in the urine: slower rate of excretion
  Clearance rate (EC/OIH): 40 ±5%

## L-cysteinylethylenepyridine carboxamide [L-CEPIC]
[1]; 30 minutes post injection
  Biodistribution: Bladder: 58.2% of total activity
  Biodistribution: Carcass: 19.8% of total activity
  Biodistribution: Intestines: 6.4% of total activity
  Biodistribution: Kidneys: 7.2% of total activity
  Biodistribution: Liver: 4.8% of total activity
  Biodistribution: Stomach: 1.9% of total activity
[4]
  Removal by the kidneys: rapid and selective removal
  Uptake in other major organs: only trace amounts
[4]; vs ^99m Tc MAG3
  Renal clearance / excretion compared to MAG3: even more rapidly excreted by the kidneys than ^99m Tc MAG3

## ^99m Tc L,L-ethylenedicysteine diethyl ester [LL-ECD]
[14]
  Brain perfusion agent: good brain perfusion agent

## ^99m Tc mercaptoacetylglycylglycyl-L-alanine [MAG2-Ala]
[15]
  Characteristics as imaging agents: promising characteristics as imaging agents

## ^99m Tc mercaptoacetylglycylglycyl-L-asparagine [MAG2-Asn]
[15]
  Characteristics as imaging agents: promising characteristics as imaging agents

## ^99m Tc mercaptoacetylglycylglycyl-L-glutamine [MAG2-Gln]
[15]
  Characteristics as imaging agents: promising characteristics as imaging agents

## ^99m Tc mercaptoacetylglycylglycyl-taurine
[16]
  Comparison to MAG3 in dogs: inferior to ^99m Tc MAG3 in dogs

## thioacetamidethiourea-ethylCOOH [TATU-EtCOOH]
[4]; vs ^99m Tc MAG3
  Renal clearance / excretion compared to MAG3: superior renal clearance

## thioacetamidethiourea-para-phenylCOOH [TATU-pPhCOOH]
[4]
  Rate of renal clearance: cleared at a moderate rate
